Laboratory results reported in ChEMBL document CHEMBL1128062, “Tricyclic -lactams: total synthesis and antibacterial activity of 5- and 5-methoxy-tribactams” (1995).

Key:
Assay type in all cases: functional
[1] = tested on: Staphylococcus aureus; test: Antibacterial activity against methicillin resistant Staphylococcus aureus 1131
[2] = tested on: Staphylococcus aureus; test: Antibacterial activity against beta-lactamase producing Staphylococcus aureus 853E
[3] = tested on: Proteus mirabilis; test: Antibacterial activity against permeable beta-lactamase producing Proteus mirabilis 355
[4] = tested on: Haemophilus influenzae; test: Antibacterial activity against Haemophilus influenzae 49247
[5] = tested on: Pseudomonas aeruginosa; test: Antibacterial activity against Pseudomonas aeruginosa 1911E
[6] = tested on: Enterobacter cloacae; test: Antibacterial activity against permeable beta-lactamase producing Enterobacter cloacae 3647
[7] = tested on: Enterococcus faecalis; test: Antibacterial activity against Enterococcus faecalis 850
[8] = tested on: Staphylococcus aureus; test: Antibacterial activity against methicillin resistant Staphylococcus aureus COL
[9] = tested on: Escherichia coli; test: Antibacterial activity against wild Escherichia coli DC0
[10] = tested on: Pseudomonas aeruginosa; test: Antibacterial activity against Pseudomonas aeruginosa 2032E WT
[11] = tested on: Staphylococcus aureus; test: Antibacterial activity against penicillin sensitive Staphylococcus aureus 663E
[12] = tested on: Escherichia coli; test: Antibacterial activity against permeable beta-lactamase producing Escherichia coli DC2 TEML
[13] = tested on: Escherichia coli; test: Antibacterial activity against permeable Escherichia coli DC2
[14] = tested on: Bacteroides fragilis; test: Antibacterial activity against Bacteroides fragilis 2017E
[15] = tested on: Clostridium perfringens; test: Antibacterial activity against Clostridium perfringens 615E
[16] = tested on: Pseudomonas aeruginosa; test: Antibacterial activity against permeable mutant Pseudomonas aeruginosa 2033E

Structure (SMILES) | MIC [1] | MIC [2] | MIC [3] | MIC [4] | MIC [5] | MIC [6] | MIC [7] | MIC [8] | MIC [9] | MIC [10] | MIC [11] | MIC [12] | MIC [13] | MIC [14] | MIC [15] | MIC [16]
CC1(C)CCC2(C)CCC(C)(C)NC2=N1.CO[C@H]1CC[C@H]2C(=C(C(=O)O)N3C(=O)[C@H]([C@@H](C)O)[C@@H]23)C1 | 32 µg/mL | 0.5 µg/mL | 4 µg/mL | 0.5 µg/mL | > 32 µg/mL | 1 µg/mL | 4 µg/mL | > 32 µg/mL | 1 µg/mL | > 32 µg/mL | 0.25 µg/mL | 1 µg/mL | 1 µg/mL | 1 µg/mL | 0.5 µg/mL | 1 µg/mL
CC1(C)CCC2(C)CCC(C)(C)NC2=N1.CO[C@@H]1CC[C@H]2C(=C(C(=O)O)N3C(=O)[C@H]([C@@H](C)O)[C@@H]23)C1 | > 32 µg/mL | 1 µg/mL | 32 µg/mL | 16 µg/mL | > 32 µg/mL | 16 µg/mL | > 32 µg/mL | > 32 µg/mL | 16 µg/mL | > 32 µg/mL | 1 µg/mL | 1 µg/mL | 0.5 µg/mL | 32 µg/mL | 8 µg/mL | 16 µg/mL
C[C@@H](O)[C@H]1C(=O)N2C(C(=O)O)=C(SCCNC=N)C[C@H]12.O [IMIPENEM] | 4 µg/mL | 0.13 µg/mL | 1 µg/mL | 1 µg/mL | 4 µg/mL | 2 µg/mL | 1 µg/mL | > 32 µg/mL | 0.5 µg/mL | 4 µg/mL | 0.13 µg/mL | 0.5 µg/mL | 0.5 µg/mL | 0.13 µg/mL | 0.06 µg/mL | 0.5 µg/mL
